Results on three compounds are retold here after patent US12414980B2, “Pharmaceutical composition comprising RUNX3 protein and CDK4 inhibitor or mTOR inhibitor cotreatment for prevention or treatment of cancer” (GeneCraft Inc., priority 2020, dated 2025).

Data set [1] has as its system PANC1 pancreatic cancer cell line. The conditions noted are these: administered simultaneously with adenovirus expressing Runx3 protein, FIG. 8.
Method: (§1) Cells were harvested and processed using FITC-Annexin V Apoptosis Detection Kit I (BD Biosciences, San Jose, CA, USA) and propidium iodide DNA staining protocol. Apoptosis and cell cycle were analyzed by flow cytometry on a BD FACS caliber machine (BD Biosciences). All data were analyzed using FlowJo software (https://www.flowjo.com).
A further data set has as its system Runx3-BRD2 complex. The data set is described as follows: Runx3-BRD2 complex formation after serum stimulation, immunoprecipitation (IP) and immunoblotting (IB). Type of data set: cell-based. Particulars: for time for which the binding of Runx3 and BRD2 was maintained: after serum stimulation. A general note: Immunoblotting shows a protein as a band on a membrane.

For data set [2], the system named is H460 lung cancer cell line. Particulars: administered simultaneously with adenovirus expressing Runx3 protein, FIG. 8.
Method: H460 cells (ATCC, Manassas, VA, USA) and H460 stable cells were maintained in RPMI 1640 medium (Gibco BRL) supplemented with 10% fetal bovine serum (Gibco BRL) and 1% penicillin/streptomycin (Invitrogen). All the cell lines were cultured in a 37° C., 5% CO2 incubator.
as §1
Particularly, each cell line prepared in Experimental Methods 1 and 4 was harvested and processed using FITC-Annexin V Apoptosis Detection Kit I (BD Biosciences, San Jose, CA, USA) and propidium iodide DNA staining protocol. Apoptosis and cell cycle were analyzed by flow cytometry on a BD FACS caliber machine (BD Biosciences). All data were analyzed using FlowJo software (https://www.flowjo.com).
A further data set concerns normal cells. Particulars: cited from earlier work.
A further data set concerns ARF. The data set is described as follows: time-dependent expression of ARF after serum stimulation, immunoblotting (IB). The conditions noted are these: suppression of mTOR using rapamycin (100 nM per methods); FIG. 3h. The data set is classed as cell-based. An excerpt:
HDAC4 siRNA was purchased from Cell Signaling Technology.

For another data set, the system named is p300-RUNX3 complex. The conditions noted are these: treatment with MEK1 inhibitor (1 μM per methods); FIG. 3a.

Molecules are shown by their SMILES.

Method for p300-RUNX3 complex: Transient transfection was performed in all cell lines using lipofectamine plus reagent and lipofectamine (Invitrogen). Cell lysates were incubated with an appropriate monoclonal or polyclonal antibody (2 μg of antibody/500 μg of lysate sample) at 4° C. for 3 hours, followed by incubation with protein G-Sepharose beads (Amersham Pharmacia Biotech, Piscataway, NJ, USA). For the detection of endogenous proteins at 4° C. for 1 hour, the lysate was incubated with an appropriate monoclonal or polyclonal antibody (1:1000˜1:3000) at 4° C. for 6 to 12 hours, and then protein G-Sepharose beads (Amersham Pharmacia Biotech) were heated at 4° C. for 3 hours. The immune precipitate was digested on an SDS-polyacrylamide gel electrophoresis (SDS-PAGE) gel and transferred to a PVDF membrane (Millipore, Billerica, MA, USA). The membrane was blocked, immunoblotted with an appropriate antibody, treated with ECL solution (Amersham Pharmacia Biotech), and visualized in Amersham™ Imager 600 (GE Healthcare, Chicago, IL, USA).
Before serum starvation, a knockdown assay was performed by transfecting HEK293 cells with 50 nM siRNA using RNAiMAX (Invitrogen, CA, USA). Cells were harvested at the designated time points after serum stimulation. […] HDAC4 siRNA was purchased from Cell Signaling Technology.

For the compound `CC(=O)c1c(C)c2cnc(Nc3ccc(N4CCNCC4)cn3)nc2n(C2CCCC2)c1=O` [PD0332991], the “cancer apoptotic effect versus adenovirus expressing Runx3 protein alone” value in data set [1] and in data set [2] was “significantly increased” each time. For the same compound, the “physical binding between Runx3 and Brd2 8 hours after serum stimulation” value in the data set with Runx3-BRD2 complex (CDK4 inhibitor at 1 nM) was “not observed”. Besides, the “time for which the binding of Runx3 and BRD2 was maintained” value in the data set on Runx3-BRD2 complex (CDK4 inhibitor present at 11 nM, FIG. 5) is “up to 8 hours”. Further, in the data set on normal cells (concentration of 11 nM), the “toxicity to normal cells” value is given as “non-toxic”.

Regarding `CO[C@H]1C[C@@H]2CC[C@@H](C)[C@@](O)(O2)C(=O)C(=O)N2CCCC[C@H]2C(=O)O[C@H]([C@H](C)C[C@@H]2CC[C@@H](O)[C@H](OC)C2)CC(=O)[C@H](C)/C=C(\C)[C@@H](O)[C@@H](OC)C(=O)[C@H](C)C[C@H](C)/C=C/C=C/C=C/1C` [rapamycin], the “cancer apoptotic effect versus adenovirus expressing Runx3 protein alone” value in data set [1] and in data set [2] was “significantly increased” in each case. Further, the “time for which the binding of Runx3 and BRD2 was maintained” value in the data set on Runx3-BRD2 complex (mTOR inhibitor present at 100 nM, FIG. 6) is “up to 8 hours”. Moreover, in the data set with Runx3-BRD2 complex (suppression of mTOR using rapamycin (100 nM per methods), FIG. 3h), the “maintenance of Rpa-RX3-AC” value is “maintained”. Further, in the data set with ARF, the “time to which the expression of ARF was extended” value is recorded as “up to 8 hours”. Moreover, the “cytotoxicity to normal cells” value in the data set on normal cells (concentration of 100 nM) was “non-cytotoxic”.

`N#CC(=C(/N)Sc1ccccc1N)/C(C#N)=C(\N)Sc1ccccc1N` [U0126]: in the data set on Runx3-BRD2 complex (treatment with MEK1 inhibitor (1 μM per methods), FIG. 3a), the “binding of BRD2-RUNX3” value is reported as “inhibited”. Also, the “binding of p300-RUNX3” value with p300-RUNX3 complex is given as “inhibited”.
